Data reported in patent US5821046A, “RNA oligonucleotides that bind HIV tat protein” (RiboTargets Holdings PLC, priority 1990, dated 1998).
Read-outs that look alike come from different tables or passages of the source.

Experiments:
[1] = test system: tat-dependent promoter activity of viral LTR carrying the TAR sequence; assay: trans-activation CAT assay, test plasmids transfected into HeLa/C63/tat cells; type: cell-based, HeLa/C63/tat (clone 9) cells
Source text: If tat binding to TAR is necessary for trans-activation, then viral LTRs carrying TAR sequences with low affinities for tat should always have reduced tat-dependent promoter activity in vivo. Site-directed mutagenesis experiments on TAR have shown that trans-activation requires sequences in both the U-rich bulge (10, 11) and the loop sequence (12, 27, 28). These observations have now been extended, using TAR mutations with known affinities for tat in transfection experiments, the results of which are shown in FIG. 8. The experiments used either HeLa cells (FIG. 8a-d) or a constitutive producer of tat, HeLa/C63/tat cells (FIG. 8e-f).
The TAR sequences depicted in FIG. 3 [SEQ ID NO: 1-11] were introduced into a test plasmid, pD5-3-3, which carries a LTR and approximately 300 bases of 5' flanking sequences derived from the infectious proviral clone NL4 (29). The bacterial chloramphenicol acetyltransferase (CAT) gene and SV40 intron and terminator sequence from pSV2-CAT (30) was inserted downstream of TAR by cloning into the HindIII site at +77. Trans-activation was measured either by cotransfection of HeLa cells with the test plasmids and the tat expression plasmid pC63-4-1 (6) (panels a-d in FIG. 10), or by transfection of the test plasmids alone into HeLa/C63/tat (clone 9) cells (panels e-h).
In these experiments, cells were plated at a density of 3×10^5 in a T25 flask and transfected by the calcium phosphate method (31). Transfections in HeLa cells used 8.0 ug of test plasmid, 1.0 to 10 ug of pC63-4-1 plasmid and 10 ug of calf thymus carrier DNA. Transfections of the HeLa/C63/tat (clone 9) cells used 0.5 to 10 ug of test plasmid and 10 ug of calf thymus carrier DNA. The HeLa/C63/tat (clone 9) cells were prepared by infection of HeLa cells with helper-free amphotrophic C63-4-1 MoMuLV-tat virus. Following selection in 2mg/ml G418 individual clones were expanded and the expression of tat protein confirmed by immunoprecipitation with monoclonal antibodies to tat (6). Cell extracts were prepared at 48h post-transfection in 150 ul lysis buffer (0.2% NP40, 20 mM Tris pH 8.0, 4mM MgCl2), heat inactivated at 65° C. for 10 min and stored at -20° C. To ensure that CAT activity was measured in the linear range of the assay (30), at less than 50% conversion of chloramphenicol in its acetylated forms, for each transfection, three different aliquots containing from 5 to 70 ul extract were assayed for CAT activity. Reactions contained extract diluted with lysis buffer to a final volume of 70 ul, 10 ul AcCoA (2.5mg/ml in lysis buffer); 0.5 ul (14C) - chloramphenicol (60 mCi/m mol) and were incubated for 45 min at 37° C. Reaction products were extracted with ethylacetate, separated by thin layer chromatography on silica plates and bands were counted in scintillation fluid to calculate the chloramphenicol conversion efficiency per 10 ul of extract.

HIV-1 tat protein = assay: competition filter binding assay, mutant TAR transcripts against labelled HIV-1 TAR RNA (FIG. 7, Table 1); details: 20 nM TAR RNA, 40 nM tat protein; for IC50: read-out: D1/2 (concentration of competitor RNA that reduces binding of HIV-1 tat to HIV-1 TAR RNA to 50%)
Description: Binding reactions (500 ul) were set up on ice and contained 80 pM ^32 P-labeled TAR RNA (17,600 dpm, 200 uCi/n mol) and unlabeled TAR RNA to give a final concentration of 20 nM, 0.5 ug calf thymus DNA, 0.2 ug yeast tRNA, 40 units RNAsin (Promega), 50 mM Tris HCl and 20 mM KCl. After addition of competitor RNA, binding was initiated by addition of HIV-1 tat protein to a final concentration of 400 ng/ml (40 nM). The binding reaction mixtures were then filtered under reduced pressure through pre-washed nitrocellulose filters (Millipore 0.45 uM pore size) and filters were dried and counted by liquid scintillation counting.
The fraction of^32 P-labeled TAR RNA bound was plotted against the final concentration of competitor RNA. In these experiments reactions included 20 nM TAR and 40 nM tat protein and increasing amounts of unlabeled competitor RNA from 40 nm to 6 uM. […] In theory, 40 nM tat will bind 50% of the input TAR RNA (D1/2) when the total TAR RNA concentration is 56 nM.
For competition experiments, binding reactions (500 ul) were set up on ice and contained 80 pM ^32 P-labeled TAR RNA (17,600 dpm, 200 uCi/n mol) and unlabeled TAR RNA to give a final concentration of 20 nM, 0.5 ug calf thymus DNA, 0.2 ug yeast TRNA, 40 units RNAsin (Promega), 50 mM Tris-HCl pH 7.9 and 20 mM KCl. After addition of 0 to 6 uM competitor RNA, binding was initiated by addition of HIV- 1 tat protein to a final concentration of 400 ng/mi (40 nM). The binding reaction mixtures were then filtered under reduced pressure through pre-washed nitrocellulose filters (Millipore 0.45 u pore size) and filters were dried and counted by liquid scintillation counting.
KRel is the ratio of the D1/2 values for HIV-1 TAR and competitor RNA.

tat protein = assay: competition filter binding assay with chemically synthesized RNA (Table 4); design: species or system HIV-1; details: for IC50: 40 nM tat, read-out: D1/2
Description: Competition binding reactions (0.5ml) in TK buffer (50 mM Tris.HCl(pH7.9 at 0.5M and 22° G), 20 mM KCl ) included 10nM ^32 p labeled 59-mer (ca. 20,000 cpm) , 40nM tat protein, 5 ug/ml calf thymus DNA, 2 ug/ml yeast tRNA, 40 units of RNAsin (Promega) and varying concentrations (0-300 nM) of unlabeled competitor RNA (59-mer [SEQ ID NO: 1; ], 29-mer [SEQ ID NO: 12] or preannealed (slow cooled from 90° C.) 14-mer [SEQ ID NO: 14; nucleotides 2-15] and 17-mer [SEQ ID NO: 13; nucleotides 1- 17]). Binding was allowed to take place for 2-15 minutes on ice and each reaction was filtered through a twice prewashed (0.6 ml of ice-cold TK buffer) Millipore GS filter (2.5 cm disks, 0.22 um pore) and the filter washed with TK buffer (0.6 ml). Dried filters were counted by liquid scintillation. Results were plotted on a graph (FIG. 19) showing counts retained on the filter versus the concentration of competitor RNA added.
Competition binding reactions (0.5 ml) in TK buffer included 10 nM duplex formed from ^32 P-labeled and unlabeled 29-mer (ca. 20,000 cpm) or 10 nM duplex formed from ^32 P-labeled and unlabeled 17-mer annealed to unlabeled 14-mer, 40 nM tat protein, 5 ug/ml calf thymus DNA, 2 ug/ml yeast tRNA and varying concentrations (0-120 nM) of unlabeled competitor RNA (29-mer or modified 29-mer (FIG. 21), or 17-mer +14-mer duplex or modified 7-mer +14-mer duplex (22, 23 and 24) and were carried out as described above.
Competition binding reactions (0-5 ml) in TK buffer included 10 nM duplex formed from ^32 P-labelled (ca. 20,000 cpm) and unlabelled 18-mer [SEQ ID NO: 13] annealed to unlabelled 15-mer [SEQ ID NO: 14], 40 nM tat protein, 5 ug/ml calf thymus DNA, 2 ug/ml yeast TRNA and varying concentrations (0-120 nM) of unlabelled competitor RNA (59-mer [SEQ ID NO: 1] or 18-mer [SEQ ID NO: 13]+15-mer [SEQ ID NO: 14] duplex, or modified 18-mer [SEQ ID NO: […]

Substance	CAT expression [1]	KRel (ratio of D1/2 values for HIV-1 TAR and competitor RNA) (HIV-1 tat protein)	IC50 (HIV-1 tat protein) [nM]	further results
SSA: sense stem, antisense loop sequence (GGGUCUCUCUGGUUAGACCAGAUUUGAGCUCCCAGGCUCUCUGGCUAACUAGGGAACCC; chemistry not given here)	no significant increase over basal levels of CAT expression	–	–	–
G28 to C28: TAR point mutation expected to disrupt the top of the TAR stem/loop structure (GGGUCUCUCUGGUUAGACCAGAUUUGACCCUGGGAGCUCUCUGGCUAACUAGGGAACCC; chemistry not given here)	null phenotypes	0.09	680	–
G to U (loop): TAR RNA in which residues 32-34 are changed to uridine (U) (GGGUCUCUCUGGUUAGACCAGAUUUGAGCCUUUUAGCUCUCUGGCUAACUAGGGAACCC; RNA, backbone not given here)	significant CAT activity observed at high plasmid concentrations	0.97	66	–
SAS: anti-sense upper stem flanked by sense lower stem and loop sequences (GGGUCUCUCUGGUUAGCCAGAGAGCCUGGGAGCUCAAAUCUGGUCUAACUAGGGAACCC; chemistry not given here)	no significant increase over basal levels of CAT expression	–	–	–
HIV-1 TAR (UUU): full length HIV-1 TAR RNA of 59 residues prepared by transcription, wild type, UUU bulge (GGGUCUCUCUGGUUAGACCAGAUUUGAGCCUGGGAGCUCUCUGGCUAACUAGGGAACCC; unmodified RNA) [reference compound]	–	1.00	64	Krel (59-mer) (tat protein; 32P-end labelled 18-mer annealed to 15-mer): 1.0; IC50 (tat protein; 32P-end labelled 18-mer annealed to 15-mer 10 nM, competitor 0-120 nM): 18 nM; Krel (59-mer) (tat protein; 32P-labeled 59-mer transcript 10 nM): 1.0; IC50 (tat protein; 32P-labeled 59-mer transcript 10 nM, competitor 0-300 nM): 40 nM; Krel (29 or 14 +17) (tat protein; relative to 14 +17 duplex, 32P-end labelled 18-mer annealed to 15-mer): 2.8
ASS: anti-sense lower stem, sense upper stem and loop sequences (GGGUUCCCUAGUUAGACCAGAUUUGAGCCUGGGAGCUCUCUGGCUAACCAGAGAGACCC; chemistry not given here)	wild-type expression levels	–	–	–
delta U (bulge): TAR RNA in which residues 23-25 are deleted (GGGUCUCUCUGGUUAGACCAGAGAGCCUGGGAGCUCUCUGGCUAACUAGGGAACCC; RNA, backbone not given here)	null phenotypes	0.15	420	IC50 (HIV-1 tat protein; listed as SEQ ID NO: 8): 290 nM
